Each structure is given as a SMILES string. Values after ≈ are worked out from the molar mass of the structure shown. Read-outs that look alike come from different tables or passages of the source. Peptide text beside a SMILES is read from it. * marks the point of attachment. βGlc = OC[C@H]1O[C@@H](*)[C@H](O)[C@@H](O)[C@@H]1O

For orientation: solubility (thermodynamic) means the concentration in solution at equilibrium with solid.

Data set [1] is described as follows: Karl Fisher coulometric titration, residual water content. Format: physicochemical. To be noted: n = 3. On the procedure: All powders’ residual water content was quantified by KFT coulometrically using conditions similar to previously reported. A TitroLine® 7500 trace titrator (SI Analytics, Mainz, Germany) was used. A mass of 1–2 mg of powder sample was dissolved in 0.5 mL AQUA STAR anhydrous methanol and injected the sample solution into a reaction cell filled with Hydranal® Coulomat AD reagent. Then obtain the water content of the sample a simple calculation. All experiments were done in triplicate (n = 3).

Data set [2] relates to Normal Human Astrocytes (NHA). Briefly: In vitro 2D cell viability, resazurin assay. To be noted: for safe (non-toxic) concentration: astrocyte brain cells (NHA). (Resazurin is reduced to fluorescent resorufin, in cell work by metabolically active cells.)
Experimental: (§1) In vitro human cell viability assays were performed to measure the biocompatibility and safety of Ang (1—7) and PNA5 on nasal epithelium RPMI 2650 cells, hCMEC/D3 blood–brain barrier endothelial cells, NHA, A549, and H441 lung cells using resazurin as a marker.
(§2) Human nasal epithelial cells (RPMI 2650) with passage numbers between 9 and 13 were used for the experiments. Eagle’s Minimum Essential Medium (EMEM) (ATCC® 30-2003™) supplemented with 10% (v/v) fetal bovine serum (FBS), 1% (v/v) Pen-Strep (100 Unit/mL penicillin, 100 μg/mL streptomycin), 0.2% (v/v) and fungizone (0.5 μg/mL amphotericin) was used to grow cells in a humidified incubator at 37 °C and 5% CO2. Normal Human Astrocytes (NHA) at passages 1 and 3 were used for the experiments. A supplements kit for a complete growth medium AGM™ SingleQuots™ (Lonza, CC-4123) was added to the growth medium of Astrocyte basal medium ABM™ (Lonza, CC-3187).
(§3) For passage, all the cell types were detached when confluence reached about 80% by treating the cells with trypsin-EDTA at 37 °C. The effects of Ang (1—7) and PNA5 on cell proliferation were analyzed by measuring all of the above cell line responses to different concentrations of Ang (1—7) and PNA5 separately. The cells were seeded in 96-well black plates at a specific density and were kept to attach for 48 h. Then, the media containing compounds were removed from each well and replaced by 100 μL of media containing 20 μM resazurin sodium salt (was dissolved in un-supplemental media) and incubated for 4 h at 37 °C and 5% CO2. The fluorescence intensity of the metabolite (resorufin) produced by the viable cells was measured at 544 nm (the excitation) and 590 nm (the emission) using the Synergy H1 Multi-Mode Reader (BioTek Instruments Inc., Winooski, VT, USA). The relative cell viability of the cell line was calculated using Equation (6):(6) Relative viability %=Sample fluorescence intensity/Control fluorescence intensity×100%
The test system of data set [3] is A549 lung epithelial cells. Briefly: In vitro 2D cell viability, resazurin assay. To be noted: for safe (non-toxic) concentration: epithelium lung cells (A549).
Experimental: as §1
(§4) A549 adenocarcinoma human alveolar basal epithelial cells (ATCC® CCL-185™) and H441 lung adenocarcinoma cells (ATCC®HTB174™) were used at passages 9 and 8, respectively, for the experiments. Both cell types were grown in a growth in RPMI Medium 1640 (1X) (Gibco, 11875-093, 500 mL) supplemented with 10% v/v fetal bovine serum (FBS), 0.2% v/v fungizone (0.5 μg/mL amphotericin), 1% v/v Pen-Strep (100 Unit/mL penicillin, 100 μg/mL streptomycin). The cells were kept in a humidified incubator at 37 °C and 5% CO2.
as §3
In data set [4] the test system is H441 lung epithelial cells. Briefly: In vitro 2D cell viability, resazurin assay. The settings on record: for safe (non-toxic) concentration: epithelium lung cells (H441).
Experimental: as §1, §4, §3
For data set [5], the system named is hCMEC/D3 blood–brain barrier endothelial cells. Briefly: In vitro 2D cell viability, resazurin assay. To be noted: for safe (non-toxic) concentration: endothelial brain cells (hCMEC/D3).
Experimental: as §1
The immortalized human cerebral microvascular endothelial (hCMEC/D3) at passages 29 and 31 were seeded on collagen-coated culture flasks. Cells were grown in EndoGRO™-MV Complete Media Kit (cat. no. SCME004) supplemented with one ng/mL FGF-2 (cat. no. GF003) and kept in a humidified incubator at 37 °C and 5% CO2.
as §3
The subject of data set [6] is RPMI 2650 nasal epithelium cells. Briefly: In vitro 2D cell viability, resazurin assay. The settings on record: for safe (non-toxic) concentration: nasal epithelium cells (RPMI2650).
Experimental: as §1, §2, §3
Data set [7] can be described thus: Solubility by shake-flask method (SFM) with HPLC. Format: physicochemical. On the procedure: The solubilities of Ang (1—7) and PNA5 were determined by the SFM using conditions similar to previously reported by our group and in [39, 40, 41, 42]. Each compound’s excess powder was added to a specific volume of different solvents (purified water, phosphate buffered saline (PBS), normal saline (NS), methanol, and ethanol) in closed, light-protected glass vials. The solutions containing excess solid of Ang (1—7) and PNA5 were then capped and agitated at room temperature (25 °C) using a shaker. More powder was added to the vial if the dissolution was complete. The pH value of Ang (1—7) and PNA5 suspensions were adjusted to pH 6.5 (pseudo-isoelectric point calculated by MOE software) to determine the zwitterionic species’ solubilities and ensure the predominant presence of the unionized form of Ang (1—7) and PNA5. The separation of the saturated solution and the precipitate was performed by sedimentation. Aliquots of supernatants were withdrawn from all saturated solutions, diluted with each corresponding solvent, and injected into analytical HPLC. Each compound in each aliquot was measured against a calibration curve using the previously developed analytical HPLC method in our lab. Each compound’s solubility experiments in all solvents were repeated three times (n = 3, mean ± standard deviation).
The HPLC system is LC-2010HT next-generation HPLC (SHIMADZU Tokyo, Japan), and it is the same as previously used in [24]. This system consists of a degassing unit, low-pressure gradient unit, pump unit, mixer, ultra-fast autosampler, column oven, and a UV-VIS detector with a thermostatted flow cell system. The analysis was performed by a reverse phase HPLC assay, using Phenomenex Prodigy 5 um ODS (3) 250 × 4.6 mm HPLC Column. Ultraviolet detection was done at 280 nm. Mobile phase condition was a gradient of acetonitrile in water with 0.1% trifluoroacetic acid at two different percentages pumped from two pumps. The flow was 1 mL/min, the injection volume was 20 μL; the retention time for Ang (1—7) was ~7.7 min and for PNA5 was ~6.7 min. Quantification for both compounds was determined using peak area and calculated from freshly prepared standard curves.

`OC[C@H]1O[C@H](O[C@H]2O[C@H](CO)[C@@H](O)[C@H](O)[C@H]2O)[C@H](O)[C@@H](O)[C@@H]1O` [Raw Trehalose, D (+)-Trehalose dihydrate]: the “Water % (w/w)” value in data set [1] was 8.55 ± 1.50 % (w/w).

`CC[C@H](C)[C@H](NC(=O)[C@H](Cc1ccc(O)cc1)NC(=O)[C@@H](NC(=O)[C@H](CCCNC(=N)N)NC(=O)[C@@H](N)CC(=O)O)C(C)C)C(=O)N[C@@H](Cc1c[nH]cn1)C(=O)N1CCC[C@H]1C(=O)O` [Ang (1—7), Asp-Arg-Val-Tyr-Ile-His-Pro]: the “safe (non-toxic) concentration” value in data set [2], in data set [3], in data set [4], in data set [5] and in data set [6] was “up to 1000 μg/mL” throughout. In addition, the entries for the “Solubility Category According to USP Definition” value in data set [7] (Ethanol), in data set [7] (Methanol) and in data set [7] (PBS) were “Very slightly soluble (VSS)”, “Slightly soluble (SS)” and “Freely Soluble (FS)”, respectively. In addition, the solubility in data set [7] (Ethanol, 25 °C, n = 3, read-out: Solubility) was 0.16 ± 0.001 mg/mL; in data set [7] (Ethanol, footnote: S in mMole unit, read-out: LogS (experimental) (converted)) it was 0.178 mM; in data set [7] (H2O, footnote: S in mMole unit, read-out: LogS (experimental) (converted)), 195 mM; in data set [7] (H2O, read-out: Solubility Category According to USP Definition) it was 100 to 1000 mg/mL; in data set [7] (Methanol, 25 °C, n = 3, read-out: Solubility), 1 ± 0.005 mg/mL; in data set [7] (Methanol, footnote: S in mMole unit, read-out: LogS (experimental) (converted)), 1.12 mM. Besides, the solubility in data set [7] (NS, footnote: S in mMole unit, read-out: LogS (experimental) (converted)) is 155 mM; in data set [7] (NS, read-out: Solubility Category According to USP Definition) it was 100 to 1000 mg/mL; in data set [7] (PBS, footnote: S in mMole unit, read-out: LogS (experimental) (converted)) it was 186 mM; in data set [7] (pH 6.5, H2O, pH 6.5, 25 °C, n = 3, read-out: Solubility), 174 ± 0.19 mg/mL; in data set [7] (pH 6.5, NS (normal saline), pH 6.5, 25 °C, n = 3, read-out: Solubility), 140.4 ± 0.32 mg/mL; in data set [7] (pH 6.5, PBS, pH 6.5, 25 °C, n = 3, read-out: Solubility), 165.4 ± 0.34 mg/mL.

Turning to `CC[C@H](C)[C@H](NC(=O)[C@H](Cc1ccc(O)cc1)NC(=O)[C@@H](NC(=O)[C@H](CCCNC(=N)N)NC(=O)[C@@H](N)CC(=O)O)C(C)C)C(=O)N[C@@H](Cc1c[nH]cn1)C(=O)N[C@@H](CO[C@@H]1O[C@H](CO)[C@@H](O)[C@H](O)[C@H]1O)C(N)=O` [PNA5, Asp-Arg-Val-Tyr-Ile-His-Ser-(O-β-D-Glc)-amide] (H-DRVYIHS(βGlc)-NH2), the “relative cell viability% vs control cells” value in data set [2] (NHA, 0.1, 1, 10 and 1000 µg/mL, p > 0.05, n = 6) was “no statistically significant difference”; in data set [3] (A549, 0.1, 1, 10 and 1000 µg/mL, p > 0.05, n = 6), “no statistically significant difference”; in data set [4] (H441, 0.1, 1, 10 and 1000 µg/mL, p > 0.05, n = 6) it was “no statistically significant difference”; in data set [5] (hCMEC/D3, 0.1, 1, 10 and 1000 µg/mL, p > 0.05, n = 6), “no statistically significant difference”; in data set [6] (RPMI2650, 0.1, 1, 10 and 1000 µg/mL, p > 0.05, n = 6), “no statistically significant difference”. In addition, the “safe (non-toxic) concentration” value in data set [2], in data set [3], in data set [4], in data set [5] and in data set [6] was “up to 1000 μg/mL” in each case. Further, the “Solubility Category According to USP Definition” value in data set [7] (Ethanol) and in data set [7] (Methanol) was “Very slightly soluble (VSS)” throughout. The thermodynamic solubility was found to be 269.3 ± 1.53 mg/mL (≈ 256 mM) in data set [7] (NS (normal saline), pH 6.5, 25 °C, n = 3); 305.05 ± 0.22 mg/mL (≈ 290 mM) in data set [7] (phosphate buffered saline (PBS), PBS, pH 6.5, 25 °C, n = 3); 275.3 ± 2.31 mg/mL (≈ 262 mM) in data set [7] (purified water, H2O, pH 6.5, 25 °C, n = 3). Besides, the solubility in data set [7] (ethanol, 25 °C, n = 3, read-out: Solubility) is 0.12 ± 0.003 mg/mL; in data set [7] (ethanol, footnote: S in mMole unit, read-out: LogS (experimental) (converted)), 0.115 mM; in data set [7] (methanol, 25 °C, n = 3, read-out: Solubility) it was 0.34 ± 0.01 mg/mL; in data set [7] (methanol, footnote: S in mMole unit, read-out: LogS (experimental) (converted)) it was 0.331 mM; in data set [7] (normal saline (NS), pH 6.5, NS, footnote: S in mMole unit, read-out: LogS (experimental) (converted)) it was 257 mM; in data set [7] (normal saline (NS), pH 6.5, NS, read-out: Solubility Category According to USP Definition), 100 to 1000 mg/mL. The solubility was 288 mM in data set [7] (phosphate buffered saline (PBS), pH 6.5, PBS, footnote: S in mMole unit, read-out: LogS (experimental) (converted)); 100 to 1000 mg/mL in data set [7] (phosphate buffered saline (PBS), pH 6.5, PBS, read-out: Solubility Category According to USP Definition); 263 mM in data set [7] (purified water, pH 6.5, H2O, footnote: S in mMole unit, read-out: LogS (experimental) (converted)); 100 to 1000 mg/mL in data set [7] (purified water, pH 6.5, H2O, read-out: Solubility Category According to USP Definition).

The record behind these values is article PMC8398878, “Synthesis, Physicochemical Characterization, In Vitro 2D/3D Human Cell Culture, and In Vitro Aerosol Dispersion Performance of Advanced Spray Dried and Co-Spray Dried Angiotensin (1—7) Peptide and PNA5 with Trehalose as Microparticles/Nanoparticles for Targeted Respiratory Delivery as Dry Powder …” (Pharmaceutics, 2021).
